Assay results published in patent publication US20150259344A1, “IMIDAZOLE DERIVATIVE” (DAINIPPON SUMITOMO PHARMA CO., LTD., priority 2012, published 2015).

Tested on: Slc:ddY mice
Assay: Novel object recognition test in mice (mORT), evaluation of cognitive function
Assay type: in vivo
Details: 3 mg/kg (oral), administered prior to the 1st trial, 2nd trial 24 hours after
Protocol: Evaluation of Cognitive Function with Mice in Novel Object Recognition Test (Hereinafter. Referred to as “mORT”)
Slc:ddY mice (25 to 30 g, male, Japan SLC) can be used in the novel object recognition test wherein the interval between the 1st trial (training) and the 2nd trial (test) correlates with the memory loss for the objects used in the 1st trial, and a significant memory-loss is observed when the 2nd trial is performed 24 hours after the 1st trial. According to the test mechanism, the present compounds were administered prior to the 1st trial, and the enhancement effect on memory in the 2nd trial was evaluated.

`O=C(C1CCC(F)(F)CC1)N1[C@@H]2CC[C@H]1C[C@H](n1cnc(-c3ccc(F)cc3)c1Cl)C2` [Example 452, {(3-exo)-3-[5-chloro-4-(4-fluorophenyl)-1H-imidazol-1-yl]-8-azabicyclo[3.2.1]oct-8-yl}(4,4-difluorocyclohexyl)methanone] was tested, and the “enhancement effect on memory in the 2nd trial (mORT)” value (from here on “enhancement effect on memory”) was “significant memory enhancing effect”.
In the case of `O=C(NC1CCOCC1)[C@H]1CC[C@@H](n2cnc(-c3ccc(F)c(F)c3)c2Cl)CC1` [Example 370, cis-4-[5-chloro-4-(3,4-difluorophenyl)-1H-imidazol-1-yl]-(tetrahydro-2H-pyran-4-yl)cyclohexanecarboxamide], the “enhancement effect on memory” value is reported as “significant memory enhancing effect”.
In the case of `CC(C)(F)C(=O)N[C@H]1CC[C@@H](n2cnc(-c3ccc(Cl)cc3)c2)CC1` [Example 280, N-{cis-4-[4-(4-chlorophenyl)-1H-imidazol-1-yl]cyclohexyl}-2-fluoro-2-methylpropanamide], the “enhancement effect on memory” value is reported as “significant memory enhancing effect”.

Target: T1, human α7 nAChR (Homo sapiens, UniProt P36544)
T1 construct: expressed in transfected cells
T1 sequence (P36544 23-502): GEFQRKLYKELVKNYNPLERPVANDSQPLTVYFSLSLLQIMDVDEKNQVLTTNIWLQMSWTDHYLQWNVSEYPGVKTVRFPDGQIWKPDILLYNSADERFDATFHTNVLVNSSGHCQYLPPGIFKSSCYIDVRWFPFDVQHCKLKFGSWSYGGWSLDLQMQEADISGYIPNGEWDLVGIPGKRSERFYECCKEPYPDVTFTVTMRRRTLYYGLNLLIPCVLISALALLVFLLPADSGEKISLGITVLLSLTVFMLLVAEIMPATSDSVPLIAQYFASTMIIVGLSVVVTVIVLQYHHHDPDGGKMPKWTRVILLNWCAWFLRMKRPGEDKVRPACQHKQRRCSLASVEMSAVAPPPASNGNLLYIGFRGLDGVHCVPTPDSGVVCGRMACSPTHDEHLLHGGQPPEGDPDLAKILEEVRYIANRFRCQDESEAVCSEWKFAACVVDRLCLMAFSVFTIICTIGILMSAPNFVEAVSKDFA
Assay: Evaluation of PAM activity with human α7 nACh receptor stably expressing cells (aequorin luminescence, FDSS7000)
Assay type: cell-based
Details: 1 μM test compound (values marked *, footnote of Table 25); ACh at EC20; ratio of RLU (Max-Min) to control wells; read-out: α7PAM (%) @1 μM
How it was run: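 Human α7 nAChR stable cells loaded with 4 μM Viviren (final) for 4 h at room temperature in the dark. Compounds in Hanks/20 mM HEPES/0.2% BSA were added and luminescence recorded on FDSS7000. PAM activity = RLU (Max-Min) ratio of test wells to control wells.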

Compared with `COc1cc(-c2ncn([C@H]3CC[C@@H](NC(=O)C4CCC4)CC3)c2Cl)ccc1F` [Example 191], `CC(C)(C)C(=O)N[C@H]1CC[C@@H](n2cnc(-c3ccc(Cl)cc3)c2C#N)CC1` [Example 334] is lower in activity at 1 µM: 364% for the first, 212% for the second.

With `N#Cc1c(-c2cccc(F)c2F)ncn1[C@@H]1C[C@H]2CC[C@@H](C1)N2C(=O)C1CCC(F)(F)CC1` [Example 463] the activity at 1 µM was 181%.

Same assay, conditions: 10 μM test compound; ACh at EC20; ratio of RLU (Max-Min) to control wells

With `CC(C)(F)C(=O)N[C@H]1CC[C@@H](n2cnc(-c3ccc(F)cc3)c2)CC1` [Example 8, 2-Fluoro-N-{cis-4-[4-(4-fluorophenyl)-1H-imidazol-1-yl]cyclohexyl}-2-methylpropanamide] the “α7PAM (%) @10 μM” value was 476%.

Same assay, conditions: 10 μM test compound; ACh at EC20; ratio of RLU (Max-Min) to control wells; read-out: α7PAM (%) @10 μM

First: CC(C)(F)C(=O)N[C@H]1CC[C@@H](n2cnc(-c3ccc(Cl)cc3)c2)CC1 [Example 280, N-{cis-4-[4-(4-chlorophenyl)-1H-imidazol-1-yl]cyclohexyl}-2-fluoro-2-methylpropanamide]
Second: CC(C)(F)C(=O)N[C@H]1CC[C@@H](n2cnc(-c3ccc(Cl)cc3)c2C#N)CC1 [Example 333]
The activity at 10 µM of the first is higher: 787% for the first, 233% for the second.

First: O=C(NC1CCOCC1)N1CCC(n2cnc(-c3cccc(F)c3)c2)CC1 [Example 244]
Second: O=C(NC1CCOCC1)N1CCC(n2cnc(-c3ccc(C(F)(F)F)cc3)c2)CC1 [Example 29]
The activity at 10 µM of the first is lower: 175% for the first, 378% for the second.

Compared with `O=C(NC1CCCCC1)N1[C@@H]2CC[C@H]1C[C@H](n1cnc(-c3ccc(F)cc3)c1)C2` [Example 405], `O=C(NC1CCCCC1)N1CCC(n2cnc(-c3cccnc3)c2)CC1` [Example 133] is lower in activity at 10 µM: 402% for the first, 101% for the second.

First: N#Cc1c(-c2ccc(F)c(F)c2)ncn1C1CCN(C(=O)C2CCC(F)(F)CC2)CC1 [Example 273]
Second: N#Cc1c(-c2ccc(F)cc2)ncn1C1CCN(C(=O)C2CCC(F)(F)CC2)CC1 [Example 154, 1-{1-[(4,4-difluorocyclohexyl)carbonyl]piperidin-4-yl}-4-(4-fluorophenyl)-1H-imidazole-5-carbonitrile]
The activity at 10 µM of the first is lower: 139% for the first, 644% for the second.

First: O=C(NC1COC1)[C@H]1CC[C@@H](n2cnc(-c3ccc(F)cc3)c2Cl)CC1 [Example 364]
Second: O=C(NC1CCOC1)[C@H]1CC[C@@H](n2cnc(-c3ccc(F)cc3)c2Cl)CC1 (stereo partly drawn) [Example 366]
The activity at 10 µM of the first is lower: 537% for the first, 834% for the second.

Compared with `O=C(NC1CCCCC1)N1CCC(n2cnc(-c3ccc(C(F)(F)F)cn3)c2)CC1` [Example 131], `Cc1c(-c2ccccc2)ncn1C1CCN(C(=O)NC2CCCCC2)CC1` [Example 102] is lower in activity at 10 µM: 738% for the first, 641% for the second.

First: O=C(NC1CC2CCC1C2)N1CCC(n2cnc(-c3cccc(F)c3)c2)CC1 (stereo not drawn) [Example 2, N-(Bicyclo[2.2.1]hept-2-yl)-4-[4-(3-fluorophenyl)-1H-imidazol-1-yl]piperidine-1-carboxamide]
Second: O=C(C1CCC(F)(F)CC1)N1CCC(n2cnc(-c3cccc(F)c3)c2)CC1 [Example 144]
The activity at 10 µM of the first is lower: 117% for the first, 346% for the second.

First: COC1CCC(NC(=O)N2CCC(n3cnc(-c4cccs4)c3)CC2)CC1 (stereo not drawn) [Example 127]
Second: COC1CCC(C(=O)N2CCC(n3cnc(-c4ccccc4)c3)CC2)CC1 (stereo not drawn) [Example 142]
The activity at 10 µM of the first is higher: 170% for the first, 163% for the second.

Compared with `O=C(NC1CCC(F)(F)CC1)N1CCC(n2cnc(-c3ccccn3)c2Cl)CC1` [Example 137], `O=C(N[C@H]1CC[C@@H](n2cnc(-c3ccccc3)c2Cl)CC1)C1CCC(F)(F)CC1` [Example 169] is higher in activity at 10 µM: 328% for the first, 454% for the second.

First: O=C(N[C@H]1CC[C@@H](n2cnc(-c3ccccc3)c2Cl)CC1)C1CCCCC1 [Example 168]
Second: O=C(N[C@H]1CC[C@@H](n2cnc(-c3ccccc3)c2Cl)CC1)C1CCC1 [Example 171]
The activity at 10 µM of the first is higher: 829% for the first, 551% for the second.

Going from `N#Cc1c(-c2ccc(F)cc2)ncn1[C@@H]1C[C@H]2CC[C@@H](C1)N2C(=O)C1CCC(F)(F)CC1` [Example 461] to `N#Cc1c(-c2cc(F)ccc2F)ncn1[C@H]1C[C@H]2CC[C@@H](C1)N2C(=O)C1CCC(F)(F)CC1` [Example 444], the activity at 10 µM rises from 162% to 208%.

Compared with `O=C(Nc1ccccc1F)N1CCC(n2cnc(-c3ccc(F)c(F)c3)c2)CC1` [Example 27], `CC(C)(F)C(=O)N[C@H]1CC[C@@H](n2cnc(-c3cccc(F)c3F)c2)CC1` [Example 299] is higher in activity at 10 µM: 139% for the first, 893% for the second.

Compared with `CC(C)(F)C(=O)N[C@H]1CC[C@@H](n2cnc(-c3ccccc3OC(F)(F)F)c2)CC1` [Example 311], `CC(C)(F)C(=O)N[C@H]1CC[C@@H](n2cnc(-c3ccc(OC(F)(F)F)cc3)c2C#N)CC1` [Example 346] is lower in activity at 10 µM: 290% for the first, 169% for the second.

First: CC(C)(F)C(=O)N[C@H]1CC[C@@H](n2cnc(-c3cccc(C(F)(F)F)c3)c2C#N)CC1 [Example 202]
Second: CC(C)(F)C(=O)N[C@H]1CC[C@@H](n2cnc(-c3cc(F)ccc3F)c2C#N)CC1 [Example 341]
The activity at 10 µM of the first is higher: 263% for the first, 233% for the second.

Going from `COc1ccc(-c2ncn([C@H]3CC[C@@H](NC(=O)C4CCC4)CC3)c2Cl)cc1Cl` [Example 179] to `O=C(NC1CCC(F)(F)CC1)N1[C@@H]2CC[C@H]1C[C@@H](n1cnc(-c3cccc(F)c3F)c1Cl)C2` [Example 398], the activity at 10 µM rises from 269% to 607%.

Going from `O=C(C1CCOCC1)N1[C@@H]2CC[C@H]1C[C@H](n1cnc(-c3cccc(F)c3F)c1Cl)C2` [Example 458] to `CC(C)(F)C(=O)N1CCC(n2cnc(-c3ccc(F)cc3)c2C#N)CC1` [Example 266], the activity at 10 µM falls from 434% to 149%.

In the case of `Cc1c(-c2ccc(F)cc2)ncn1[C@H]1CC[C@@H](Nc2cc(C(F)(F)F)ncn2)CC1` [Example 239], the activity at 10 µM is reported as 207%.

Same assay, conditions: GH4-C1, 10 μM test compound; ratio of RLU (Max-Min) of test wells to control wells after ACh at EC20; GH4C1 cells expressing human α7 nAChR and aequorin; read-out: α7PAM (%) @10 μM

For `CC(C)(C)NC(=O)[C@H]1CC[C@H](n2cnc(-c3ccccc3)c2)CC1` [Example 232], the activity at 10 µM was 113%.

Same assay, conditions: comparison across Tables 18 to 25

In the case of `O=C(NC1CCC(F)(F)CC1)N1CCC(n2cnc(-c3ccc(Cl)cc3)c2)CC1` [Example 22], the “PAM activity for α7 nAChR (in words)” value is reported as “stronger PAM activity than others”.
